“And” between values parts separate entries of the source, which are not always exact repeats. Equal entries are not always repeated. Where two headings read alike, the source gives them in different places.
How the values were obtained:
PDGFRα = target: T1, PDGFRα (Homo sapiens, UniProt P16234); test: ADP-Glo kinase assay, PDGFRα; format: biochemical
T1 construct: purchased Promega
Experimental: (§1) The ADP-Glo kinase assay (Promega, Madison, WI, USA) was used to screen compounds 5, 8–10, 14, 17, 19 and 24 for the tyrosine kinase (Kinase Selectivity Profiling System TK-1, Promega, Madison, WI, USA) and serine/threonine kinase (Kinase Selectivity Profiling System Other/CK-1, Promega, Madison, WI, USA) inhibition effects according to the manufacturer’s technical manual. The luminescence data were analyzed as described in our prior work.
(§2) The selectivity of the potential kinase inhibitor against a specific protein kinase or a specific family of kinases was investigated using the Kinase Selectivity Profiling System TK-1, Other/CK-1 and ADP-Glo™ Kinase assay kit (Promega, Madison, WI, USA).

HER4 = target: T2, HER4 (Homo sapiens, UniProt Q15303); test: ADP-Glo kinase assay, HER4; format: biochemical
T2 construct: purchased Promega
Experimental: as §1, §2

K562 cells [1] = test: Annexin V-FITC/PI apoptosis assay; format: cell-based; details: 48 h
Experimental: K562 tumor cells were plated on a 6-well plate at a density of 400,000 per well. Test compounds 5, 14 and 15 were added at concentrations of 1, 5 and 10 μM in duplicate for 48 h. The methodology and analysis of the obtained data were performed as described in our prior work.
The effects of compounds 5, 14 and 15 on cell apoptosis were examined using the Annexin V-FITC Kit (Beckman Coulter, Brea, CA, USA) according to the protocols provided. The Annexin V-FITC Kit is an apoptosis detection kit based on the binding properties of annexin V to phosphatidylserine (PS) and on the DNA intercalating capability of propidium iodide (PI). K562 cells were treated with compound 5, 14 and 15 at 1, 5 and 10 μM for 48 h, after which annexin V/PI binding was measured by flow cytometry.

A549 (lung carcinoma) = test: MTT cell proliferation assay, A549; format: cell-based; details: Homo sapiens, A549, 72 h of exposition, read-out: Anti-proliferative activity IC50, A549
Experimental: (§3) Tests to determine the effects of the synthesized compounds on cell viability and the half-maximal inhibitory concentration (IC50) were performed using the MTT assay, as described in our prior work.
(§4) The target compounds 5, 6, 8–12, 14, 15, 17–22 and 24–26 were tested for antiproliferative activity against six cancer cell lines: K562 (chronic myelogenous leukemia), HL-60 (promyelocytic leukemia), MCF-7 (breast adenocarcinoma), HepG2 (human liver cancer), A549 (lung carcinoma) and OKP-GS (renal cell carcinoma). The RPMI 1788 cells (B lymphocyte, human) were used as a control to evaluate the system toxicity of the studied compounds to normal cells. Sorafenib, nilotinib and lapatinib were utilized as reference standards for comparison.

Aurora A = target: T3, Aurora A (Homo sapiens, UniProt O14965); test: ADP-Glo kinase assay, Aurora A; format: biochemical
T3 construct: purchased Promega
T3 sequence (O14965 1-403): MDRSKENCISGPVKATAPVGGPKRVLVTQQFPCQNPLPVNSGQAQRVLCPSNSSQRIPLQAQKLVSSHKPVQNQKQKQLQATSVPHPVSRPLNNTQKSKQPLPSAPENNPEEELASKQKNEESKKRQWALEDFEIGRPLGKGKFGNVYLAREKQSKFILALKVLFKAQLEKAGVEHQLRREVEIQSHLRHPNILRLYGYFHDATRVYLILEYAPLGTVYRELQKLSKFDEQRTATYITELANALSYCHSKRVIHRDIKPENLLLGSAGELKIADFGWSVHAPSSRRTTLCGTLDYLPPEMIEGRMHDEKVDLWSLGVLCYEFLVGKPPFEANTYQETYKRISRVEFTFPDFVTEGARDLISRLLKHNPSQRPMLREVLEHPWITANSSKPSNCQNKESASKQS
Experimental: as §1, §2

EGFR = target: T4, EGFR (Homo sapiens, UniProt P00533); test: ADP-Glo kinase assay, EGFR; format: biochemical
T4 construct: purchased Promega

[2] = tested on: RPMI 1788 cells (B lymphocyte, human); test: MTT cell proliferation assay, normal RPMI 1788 cells; format: cell-based; details: normal human lymphoblastoid cells RPMI 1788, 72 h of exposition, read-out: Anti-proliferative activity IC50, RPMI 1788
Experimental: as §3, §4

InsR (insulin receptor) = target: T5, InsR (insulin receptor) (Homo sapiens, UniProt P06213); test: ADP-Glo kinase assay, InsR; format: biochemical
T5 construct: purchased Promega
Experimental: as §1, §2

[3] = tested on: HL-60 (promyelocytic leukemia); test: MTT cell proliferation assay, HL-60; format: cell-based; details: Homo sapiens, HL-60, 72 h of exposition, read-out: Anti-proliferative activity IC50, HL-60
Experimental: as §3, §4

[4] = target: T6, IGF1R (insulin-like growth factor 1 receptor) (Homo sapiens, UniProt P08069); test: ADP-Glo kinase assay, IGF1R; format: biochemical
T6 construct: purchased Promega
Experimental: as §1, §2

HER2 = target: T7, HER2 (Homo sapiens, UniProt P04626); test: ADP-Glo kinase assay, HER2; format: biochemical
T7 construct: purchased Promega
Experimental: as §1, §2

KDR (VEGFR-2) = target: T8, KDR (VEGFR-2) (Homo sapiens, UniProt P35968); test: ADP-Glo kinase assay, KDR; format: biochemical
T8 construct: purchased Promega

[5] = tested on: OKP-GS (renal cell carcinoma); test: MTT cell proliferation assay, OKP-GS; format: cell-based; details: 72 h of exposition, read-out: Anti-proliferative activity IC50, OKP-GS
Experimental: as §3, §4

K562 cell line = test: ROS determination (DCFH-DA, flow cytometry); format: cell-based; details: 48 h
Experimental: The redox status was assessed using the K562 cell line. […] Then, the cells were washed to remove the 2′,7′-dichlorodihydrofluorescein diacetate by centrifugation at 1000 rpm for 5 min. The measurements were conducted using a Cytomics FC500 Beckman Coulter flow cytometer (FL1 channel for DCF).

[6] = tested on: MCF-7 (breast adenocarcinoma); test: MTT cell proliferation assay, MCF-7; format: cell-based; details: Homo sapiens, MCF7, MCF-7, 72 h of exposition, read-out: Anti-proliferative activity IC50, MCF-7
Experimental: as §3, §4

[7] = tested on: K562 (chronic myelogenous leukemia); test: MTT cell proliferation assay, K562; format: cell-based; details: Homo sapiens, K562, 72 h of exposition, read-out: Anti-proliferative activity IC50, K562
Experimental: as §3, §4

Aurora B = target: T9, Aurora B (Homo sapiens, UniProt Q96GD4); test: ADP-Glo kinase assay, Aurora B; format: biochemical
T9 construct: purchased Promega
Experimental: as §1, §2

K562 cells [8] = test: Cell cycle analysis (propidium iodide, flow cytometry); format: cell-based; details: 48 h
Experimental: Tumor cells were seeded on a 6-well plate at a density of 400,000 per well for K562. Test compounds 5, 14 and 15 were added at concentrations of 1, 5 and 10 μM in duplicate for 48 h. The methodology and analysis of the obtained data were performed as described in our prior work.
As shown above, compounds 5, 14 and 15 had significant antiproliferative activities, which is why their influences on the cell cycle and apoptosis level were determined, with the aim of understanding whether these effects are cytostatic or cytotoxic. In the cell cycle experiments, K562 cells were used. […] For the determination of changes in the distribution of cells in the phases of the cell cycle, the widely employed method of staining the cells with propidium iodide was used.

PDGFRβ = target: T10, PDGFRβ (Homo sapiens, UniProt P09619); test: ADP-Glo kinase assay, PDGFRβ; format: biochemical
T10 construct: purchased Promega
Experimental: as §1, §2

[9] = tested on: HepG2 (human liver cancer); test: MTT cell proliferation assay, HepG2; format: cell-based; details: HepG2, 72 h of exposition, read-out: Anti-proliferative activity IC50, HepG2
Experimental: as §3, §4

[10] = tested on: cancer cell lines (K562, HL-60, MCF-7, HepG2, A549, OKP-GS); test: MTT cell proliferation assay, statements over the whole cell line panel; format: cell-based; details: statement over the cell line panel, studied concentration range up to 50 µM
Experimental: as §3, §4

T9 sequence (Q96GD4 whole entry): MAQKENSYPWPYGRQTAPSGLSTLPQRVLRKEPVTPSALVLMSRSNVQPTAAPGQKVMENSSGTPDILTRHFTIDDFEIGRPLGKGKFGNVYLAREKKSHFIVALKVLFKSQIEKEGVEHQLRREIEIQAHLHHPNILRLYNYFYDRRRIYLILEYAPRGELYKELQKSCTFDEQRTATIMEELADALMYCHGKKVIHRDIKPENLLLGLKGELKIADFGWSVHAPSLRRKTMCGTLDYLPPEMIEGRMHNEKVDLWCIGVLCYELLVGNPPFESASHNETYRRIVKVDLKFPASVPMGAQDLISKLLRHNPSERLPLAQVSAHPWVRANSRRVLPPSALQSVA
T4 sequence (P00533 25-1210): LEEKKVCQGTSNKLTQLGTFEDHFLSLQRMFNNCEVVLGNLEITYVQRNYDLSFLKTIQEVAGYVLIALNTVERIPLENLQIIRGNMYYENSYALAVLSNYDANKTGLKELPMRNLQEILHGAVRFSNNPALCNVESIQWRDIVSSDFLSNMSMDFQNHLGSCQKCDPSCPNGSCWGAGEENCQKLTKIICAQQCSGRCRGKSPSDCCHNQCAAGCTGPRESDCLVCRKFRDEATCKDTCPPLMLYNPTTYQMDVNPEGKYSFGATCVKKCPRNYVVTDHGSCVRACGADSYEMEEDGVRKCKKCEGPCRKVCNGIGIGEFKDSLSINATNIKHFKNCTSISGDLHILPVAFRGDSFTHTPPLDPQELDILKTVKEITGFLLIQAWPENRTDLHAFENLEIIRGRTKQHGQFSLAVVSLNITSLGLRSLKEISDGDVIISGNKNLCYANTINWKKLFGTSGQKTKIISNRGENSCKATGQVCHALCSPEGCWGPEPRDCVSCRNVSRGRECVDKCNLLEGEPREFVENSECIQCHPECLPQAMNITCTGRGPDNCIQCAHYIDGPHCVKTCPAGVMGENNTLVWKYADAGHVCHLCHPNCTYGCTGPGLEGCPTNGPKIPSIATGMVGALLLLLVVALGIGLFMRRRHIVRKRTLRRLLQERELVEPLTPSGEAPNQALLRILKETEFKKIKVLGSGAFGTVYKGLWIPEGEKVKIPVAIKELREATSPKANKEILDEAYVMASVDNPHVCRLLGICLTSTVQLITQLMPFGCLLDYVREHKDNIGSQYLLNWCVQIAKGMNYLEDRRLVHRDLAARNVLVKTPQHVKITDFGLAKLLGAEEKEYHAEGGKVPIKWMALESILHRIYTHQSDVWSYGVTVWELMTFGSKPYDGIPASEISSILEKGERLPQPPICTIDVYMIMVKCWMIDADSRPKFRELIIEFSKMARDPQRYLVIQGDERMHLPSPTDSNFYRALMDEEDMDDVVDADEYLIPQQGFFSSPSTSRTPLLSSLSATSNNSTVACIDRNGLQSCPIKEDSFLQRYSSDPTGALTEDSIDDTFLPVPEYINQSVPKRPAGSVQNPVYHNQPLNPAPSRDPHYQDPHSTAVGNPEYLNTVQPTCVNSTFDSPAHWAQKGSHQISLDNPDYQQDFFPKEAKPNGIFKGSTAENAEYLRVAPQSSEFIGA
T7 sequence (P04626 23-1255): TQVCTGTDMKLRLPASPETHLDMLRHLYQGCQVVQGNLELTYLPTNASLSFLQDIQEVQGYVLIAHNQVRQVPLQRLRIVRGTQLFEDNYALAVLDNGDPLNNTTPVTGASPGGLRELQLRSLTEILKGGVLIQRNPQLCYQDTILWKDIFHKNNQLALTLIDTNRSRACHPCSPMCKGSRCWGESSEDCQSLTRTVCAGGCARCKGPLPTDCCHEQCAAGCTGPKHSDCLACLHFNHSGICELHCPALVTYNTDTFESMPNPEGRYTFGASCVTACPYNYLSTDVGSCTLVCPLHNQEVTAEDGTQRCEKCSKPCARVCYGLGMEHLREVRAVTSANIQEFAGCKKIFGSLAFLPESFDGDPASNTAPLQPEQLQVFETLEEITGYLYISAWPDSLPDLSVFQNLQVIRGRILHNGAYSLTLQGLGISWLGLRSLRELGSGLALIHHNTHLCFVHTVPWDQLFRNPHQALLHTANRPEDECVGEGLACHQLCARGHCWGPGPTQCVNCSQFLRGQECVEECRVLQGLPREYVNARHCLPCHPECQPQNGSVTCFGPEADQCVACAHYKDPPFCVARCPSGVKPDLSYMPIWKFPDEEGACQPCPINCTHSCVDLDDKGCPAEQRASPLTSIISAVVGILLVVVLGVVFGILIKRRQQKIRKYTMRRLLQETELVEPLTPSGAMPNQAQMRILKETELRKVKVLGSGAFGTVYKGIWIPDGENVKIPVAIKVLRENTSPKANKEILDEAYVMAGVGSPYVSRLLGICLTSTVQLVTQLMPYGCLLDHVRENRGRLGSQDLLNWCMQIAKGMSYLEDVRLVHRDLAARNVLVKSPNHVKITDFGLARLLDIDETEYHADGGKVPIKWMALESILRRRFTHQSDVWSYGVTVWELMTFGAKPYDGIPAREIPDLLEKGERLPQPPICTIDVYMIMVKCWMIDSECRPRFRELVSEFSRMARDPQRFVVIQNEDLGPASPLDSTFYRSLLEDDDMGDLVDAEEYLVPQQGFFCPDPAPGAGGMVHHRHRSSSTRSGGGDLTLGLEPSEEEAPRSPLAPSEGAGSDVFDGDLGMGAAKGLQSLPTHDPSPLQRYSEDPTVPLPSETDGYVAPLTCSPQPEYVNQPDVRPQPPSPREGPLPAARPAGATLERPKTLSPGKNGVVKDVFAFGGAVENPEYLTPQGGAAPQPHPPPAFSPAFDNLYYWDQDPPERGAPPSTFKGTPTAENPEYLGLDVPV
T10 sequence (P09619 33-1106): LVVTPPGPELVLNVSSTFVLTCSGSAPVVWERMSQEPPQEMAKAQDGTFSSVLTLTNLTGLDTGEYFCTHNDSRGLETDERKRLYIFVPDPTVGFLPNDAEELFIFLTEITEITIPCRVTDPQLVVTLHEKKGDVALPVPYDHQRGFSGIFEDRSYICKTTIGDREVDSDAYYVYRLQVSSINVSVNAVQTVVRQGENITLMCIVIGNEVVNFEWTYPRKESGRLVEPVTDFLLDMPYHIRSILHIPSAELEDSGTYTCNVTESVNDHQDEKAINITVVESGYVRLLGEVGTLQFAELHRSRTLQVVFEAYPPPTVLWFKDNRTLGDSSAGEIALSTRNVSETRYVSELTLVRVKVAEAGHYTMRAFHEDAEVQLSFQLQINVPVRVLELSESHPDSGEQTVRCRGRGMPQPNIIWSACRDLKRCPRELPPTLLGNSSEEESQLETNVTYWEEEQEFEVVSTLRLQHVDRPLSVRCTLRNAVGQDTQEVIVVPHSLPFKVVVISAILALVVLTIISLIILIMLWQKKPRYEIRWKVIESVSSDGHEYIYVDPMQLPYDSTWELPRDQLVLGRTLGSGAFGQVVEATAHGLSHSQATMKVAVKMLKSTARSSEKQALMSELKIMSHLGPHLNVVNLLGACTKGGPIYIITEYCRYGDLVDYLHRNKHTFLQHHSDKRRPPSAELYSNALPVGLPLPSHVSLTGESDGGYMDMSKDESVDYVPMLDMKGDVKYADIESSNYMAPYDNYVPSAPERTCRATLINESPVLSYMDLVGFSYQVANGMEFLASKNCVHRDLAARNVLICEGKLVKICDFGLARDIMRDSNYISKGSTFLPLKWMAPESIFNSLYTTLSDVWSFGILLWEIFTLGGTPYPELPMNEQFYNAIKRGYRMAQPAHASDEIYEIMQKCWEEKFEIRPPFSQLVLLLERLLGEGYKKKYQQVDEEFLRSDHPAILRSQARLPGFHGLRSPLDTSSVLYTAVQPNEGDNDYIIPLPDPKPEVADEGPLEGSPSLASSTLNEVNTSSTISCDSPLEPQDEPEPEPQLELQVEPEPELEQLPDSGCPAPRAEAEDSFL
T2 sequence (Q15303 26-1308): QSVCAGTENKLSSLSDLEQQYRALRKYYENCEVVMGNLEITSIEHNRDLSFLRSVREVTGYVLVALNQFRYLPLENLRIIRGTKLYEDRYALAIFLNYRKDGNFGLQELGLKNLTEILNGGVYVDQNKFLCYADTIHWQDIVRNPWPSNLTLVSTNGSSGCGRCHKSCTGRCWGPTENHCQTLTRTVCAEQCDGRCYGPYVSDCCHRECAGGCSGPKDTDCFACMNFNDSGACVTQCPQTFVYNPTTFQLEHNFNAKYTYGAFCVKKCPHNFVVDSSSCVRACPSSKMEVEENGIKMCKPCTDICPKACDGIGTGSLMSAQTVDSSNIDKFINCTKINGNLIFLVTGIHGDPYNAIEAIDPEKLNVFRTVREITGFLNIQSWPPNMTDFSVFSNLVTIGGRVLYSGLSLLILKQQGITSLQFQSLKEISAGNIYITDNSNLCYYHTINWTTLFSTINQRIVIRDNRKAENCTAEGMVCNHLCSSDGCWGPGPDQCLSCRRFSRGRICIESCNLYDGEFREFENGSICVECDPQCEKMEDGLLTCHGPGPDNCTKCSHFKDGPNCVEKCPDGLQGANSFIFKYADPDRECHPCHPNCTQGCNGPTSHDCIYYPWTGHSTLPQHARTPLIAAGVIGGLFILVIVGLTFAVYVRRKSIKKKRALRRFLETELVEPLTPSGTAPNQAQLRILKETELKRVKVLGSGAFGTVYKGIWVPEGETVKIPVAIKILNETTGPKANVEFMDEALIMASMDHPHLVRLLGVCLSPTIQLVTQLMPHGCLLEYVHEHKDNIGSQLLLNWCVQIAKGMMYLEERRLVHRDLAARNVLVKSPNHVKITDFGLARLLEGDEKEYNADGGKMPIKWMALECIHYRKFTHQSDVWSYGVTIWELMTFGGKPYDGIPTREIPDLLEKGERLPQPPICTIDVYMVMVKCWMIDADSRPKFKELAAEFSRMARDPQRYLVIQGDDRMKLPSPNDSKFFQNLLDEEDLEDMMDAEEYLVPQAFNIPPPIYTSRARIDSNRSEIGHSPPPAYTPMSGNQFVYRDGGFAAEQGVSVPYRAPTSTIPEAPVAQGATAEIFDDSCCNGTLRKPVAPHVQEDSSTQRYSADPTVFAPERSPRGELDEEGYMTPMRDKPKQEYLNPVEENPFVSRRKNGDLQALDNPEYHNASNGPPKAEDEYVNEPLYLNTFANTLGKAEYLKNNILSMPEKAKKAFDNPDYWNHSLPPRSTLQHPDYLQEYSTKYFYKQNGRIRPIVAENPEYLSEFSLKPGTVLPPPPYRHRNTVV

| Structure (SMILES) | inhibition at 10 µM (PDGFRα) | inhibition at 10 µM (HER4) | normal live cells (living cells) (K562 cells [1]; K562, 1 µM) | normal live cells (living cells) (K562 cells [1]; K562, 5 µM) | normal live cells (living cells) (K562 cells [1]; K562, 10 µM) | melting point | IC50 (A549 (lung carcinoma)) | inhibition at 10 µM (Aurora A) | inhibition at 10 µM (EGFR) | IC50 [2] | inhibition at 10 µM (InsR (insulin receptor)) | IC50 [3] | inhibition at 10 µM [4] | inhibition at 10 µM (HER2) | inhibition at 10 µM (KDR (VEGFR-2)) | IC50 [5] | ROS Level, % of Control (K562 cell line; K562, 5 µM) | IC50 [6] | IC50 [7] | IC50 ([9]; Homo sapiens, HepG2, 72 h) | further results |
| --- | --- | --- | --- | --- | --- | --- | --- | --- | --- | --- | --- | --- | --- | --- | --- | --- | --- | --- | --- | --- | --- |
| Cc1cn(-c2cc(NC(=O)c3cccc(C(=O)N4CCN(C(=O)c5ccccc5F)CC4)c3)cc(C(F)(F)F)c2)cn1 [Compound 14, 3-(4-(2-Fluorobenzoyl)piperazine-1-carbonyl)-N-(3-(4-methyl-1H-imidazol-1-yl)-5-(trifluoromethyl)phenyl)benzamide] | 24% | 0% | 83.95% | 65.68% | 56.83% | 135 to 138 °C | > 50 µM | 0% | 21% | 26.6 ± 2.31 µM | 0% | 32.5 ± 1.5 µM | 0% | 14% | 26% | > 50 µM | 92.84 % of Control | 27.3 ± 0.16 µM | 7.71 ± 2.84 µM | 44.1 ± 4.19 µM | ROS Level, % of Control (K562 cell line; K562, 10 µM): 76.96 % of Control; ROS Level, % of Control (K562 cell line; K562, 20 µM): 71.90 % of Control; inhibition at 10 µM (Aurora B): 7%; Apoptosis, % (cell cycle analysis) (K562 cells [8]; K562, 1 µM): 14.28%; G1, % (K562 cells [8]; K562, 1 µM): 32.65%; G2/M, % (K562 cells [8]; K562, 1 µM): 46.95%; S, % (K562 cells [8]; K562, 1 µM): 20.41%; Apoptosis, % (cell cycle analysis) (K562 cells [8]; K562, 5 µM): 25.10%; G1, % (K562 cells [8]; K562, 5 µM): 27.58%; G2/M, % (K562 cells [8]; K562, 5 µM): 55.16%; S, % (K562 cells [8]; K562, 5 µM): 17.25%; Apoptosis, % (cell cycle analysis) (K562 cells [8]; K562, 10 µM): 38.02%; G1, % (K562 cells [8]; K562, 10 µM): 31.21%; G2/M, % (K562 cells [8]; K562, 10 µM): 51.08%; S, % (K562 cells [8]; K562, 10 µM): 17.71%; inhibition at 10 µM (PDGFRβ): 23% |
| CNC(=O)c1cc(Oc2ccc(NC(=O)c3cccc(C(=O)Nc4cc(-n5cnc(C)c5)cc(C(F)(F)F)c4)c3)cc2)ccn1 [Compound 11, N1-(3-(4-methyl-1H-imidazol-1-yl)-5-(trifluoromethyl)phenyl)-N3-(4-((2-(methylcarbamoyl)pyridin-4-yl)oxy)phenyl)isophthalamide] | – | – | – | – | – | 313 to 315 °C | > 50 µM | – | – | 21.9 ± 0.44 µM | – | > 50 µM | – | – | – | 26.5 ± 3.65 µM | – | > 50 µM | > 50 µM | > 50 µM | Antiproliferative activity (IC50) over the studied cell cultures [10]: lack of sensitivity of the cancer cells in the studied concentration range |
| Cc1cn(-c2cc(NC(=O)c3cccc(C(=O)Nc4cccc(C(F)(F)F)c4)c3)cc(C(F)(F)F)c2)cn1 [Compound 5, N1-(3-(4-methyl-1H-imidazol-1-yl)-5-(trifluoromethyl)phenyl)-N3-(3-(trifluoromethyl)phenyl)isophthalamide] | 73% | 0% | 79.72% | 48.87% | 38.66% | – | > 50 µM | 0% | 0% | 2.86 ± 0.09 µM | 0% | 7.04 ± 0.29 µM | 0% | 33% | 18% | 17.8 ± 2.13 µM | 76.76 % of Control | 4.91 ± 1.27 µM | 3.42 ± 0.78 µM | 8.84 µM | early apoptotic cells (K562 cells [1]; K562, 5 µM): 29.07%; late apoptotic cells (K562 cells [1]; K562, 5 µM): 19.93%; necrotic cells (K562 cells [1]; K562, 10 µM): 16.38%; ROS Level, % of Control (K562 cell line; K562, 10 µM): 64.66 % of Control; ROS Level, % of Control (K562 cell line; K562, 20 µM, 20 µM): 62.9 % of Control; inhibition at 10 µM (Aurora B): 0%; Apoptosis, % (cell cycle analysis) (K562 cells [8]; K562, 1 µM): 14.56%; G1, % (K562 cells [8]; K562, 1 µM): 37.92%; G2/M, % (K562 cells [8]; K562, 1 µM): 45.08%; S, % (K562 cells [8]; K562, 1 µM): 17.0% and 17.01%; Apoptosis, % (cell cycle analysis) (K562 cells [8]; K562, 5 µM): 37.20%; G1, % (K562 cells [8]; K562, 5 µM): 31.77%; G2/M, % (K562 cells [8]; K562, 5 µM): 50.09%; S, % (K562 cells [8]; K562, 5 µM): 18.14%; Apoptosis, % (cell cycle analysis) (K562 cells [8]; K562, 10 µM): 53.50%; G1, % (K562 cells [8]; K562, 10 µM): 29.86%; G2/M, % (K562 cells [8]; K562, 10 µM): 38.0% and 38.08%; S, % (K562 cells [8]; K562, 10 µM): 32.05%; inhibition at 10 µM (PDGFRβ): 18%; IC50 [9]: 7.84 ± 2.61 µM |

From PMC10046946, “Novel Phthalic-Based Anticancer Tyrosine Kinase Inhibitors: Design, Synthesis and Biological Activity” (Current Issues in Molecular Biology, 2023)
